Patent publication US9115092B2, “Substituted quinazoline and pyrido-pyrimidine derivatives” (Asana Biosciences, LLC, priority 2010, dated 2015)

Columns and labels:
[1] = target: T1, PI3Kα (wild-type), P110/P85α (Homo sapiens, UniProt P42336); experiment: PI3 Kinase TR-FRET assay, PI3Kα (wild-type); format: biochemical
T1 construct: made in house; host or cells: SF9 insect cells
Outline: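 TR-FRET read-out of PIP3 formation via biotin-PIP3 displacement (665/615 nm ratio) gave IC50 curves. Enzyme: 5 ng wild-type P110/P85α from Sf9 cells, 60 min RT with compound and PIP2 (MgCl2 40 mM, DTT 5 mM), then 30 min RT kinase reaction at 10 μM ATP and 10 μM PIP2.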

mTOR kinase = target: T2, mTOR kinase (Homo sapiens, UniProt P42345); experiment: mTOR kinase TR-FRET assay; format: biochemical; details: read-out: mTO R
T2 construct: purchased Millipore, USA
Outline: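 TR-FRET read-out (340 nm excitation, 615/665 nm emission) of Thr389 phosphorylation of a ULight-labeled p70 S6K peptide (50 nM) by mTOR, 20 μM ATP, 60 min room temperature after 60 min compound preincubation. Buffer HEPES pH 7.5 with MnCl2, EGTA; IC50 by sigmoidal dose-response.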

PC3 cells = experiment: XTT assay for cell viability, PC3 cells; format: cell-based, human; details: Homo sapiens, PC-3, cell viability
Method: Using a commercial kit from Sigma Aldrich (Catalog #X34251) and following its protocol, PC3 cells in the log phase of growth were employed and seeded at an optimal density of 1000 cell/well on to 96 well plates and incubated for 24 h followed by the addition of compounds of formula (I) in serial dilutions. Compound dilutions were made in DMSO. The cells were incubated with the compounds of formula (I) for 96 h and XTT tetrazolium dye (Sigma, USA) was subsequently added and incubated at 37° C. After the color formation, absorbance was measured at 465 nm in a Spectramax® Gemini spectrophotometer. EC50 values were calculated using a sigmoidal dose response curve fit in GraphPad Prism® v5 software. The tested compounds of formula (I) which caused inhibition of PC3 cell proliferation as determined by this assay protocol are shown in Table 2.

T1 sequence (P42336 whole entry): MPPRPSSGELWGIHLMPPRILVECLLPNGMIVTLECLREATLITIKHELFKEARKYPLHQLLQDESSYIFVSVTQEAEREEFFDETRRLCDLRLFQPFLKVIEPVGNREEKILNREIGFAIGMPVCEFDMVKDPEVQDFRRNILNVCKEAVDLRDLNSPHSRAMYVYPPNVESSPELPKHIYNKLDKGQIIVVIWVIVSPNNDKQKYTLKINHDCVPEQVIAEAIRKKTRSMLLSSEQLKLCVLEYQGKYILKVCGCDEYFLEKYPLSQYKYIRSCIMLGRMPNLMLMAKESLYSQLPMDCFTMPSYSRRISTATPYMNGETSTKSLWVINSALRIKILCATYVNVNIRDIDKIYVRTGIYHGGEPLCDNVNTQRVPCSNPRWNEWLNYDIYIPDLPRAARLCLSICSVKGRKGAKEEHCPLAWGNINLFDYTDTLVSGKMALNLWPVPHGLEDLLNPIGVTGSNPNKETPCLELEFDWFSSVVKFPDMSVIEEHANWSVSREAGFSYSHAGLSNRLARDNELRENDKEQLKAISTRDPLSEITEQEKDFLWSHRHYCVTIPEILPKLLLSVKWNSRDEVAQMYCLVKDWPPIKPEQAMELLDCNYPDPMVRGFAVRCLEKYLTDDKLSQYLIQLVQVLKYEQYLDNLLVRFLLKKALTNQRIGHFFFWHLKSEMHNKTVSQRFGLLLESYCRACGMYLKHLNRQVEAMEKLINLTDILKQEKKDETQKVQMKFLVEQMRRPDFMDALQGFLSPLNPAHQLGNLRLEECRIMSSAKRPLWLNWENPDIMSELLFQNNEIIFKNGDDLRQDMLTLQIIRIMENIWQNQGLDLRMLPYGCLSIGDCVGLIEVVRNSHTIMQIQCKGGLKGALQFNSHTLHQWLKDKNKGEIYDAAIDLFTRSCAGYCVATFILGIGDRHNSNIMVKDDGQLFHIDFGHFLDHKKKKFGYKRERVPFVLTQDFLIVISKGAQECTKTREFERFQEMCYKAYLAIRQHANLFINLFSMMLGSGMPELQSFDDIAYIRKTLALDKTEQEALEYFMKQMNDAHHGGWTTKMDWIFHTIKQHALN
T1 sequence (P27986 whole entry partner): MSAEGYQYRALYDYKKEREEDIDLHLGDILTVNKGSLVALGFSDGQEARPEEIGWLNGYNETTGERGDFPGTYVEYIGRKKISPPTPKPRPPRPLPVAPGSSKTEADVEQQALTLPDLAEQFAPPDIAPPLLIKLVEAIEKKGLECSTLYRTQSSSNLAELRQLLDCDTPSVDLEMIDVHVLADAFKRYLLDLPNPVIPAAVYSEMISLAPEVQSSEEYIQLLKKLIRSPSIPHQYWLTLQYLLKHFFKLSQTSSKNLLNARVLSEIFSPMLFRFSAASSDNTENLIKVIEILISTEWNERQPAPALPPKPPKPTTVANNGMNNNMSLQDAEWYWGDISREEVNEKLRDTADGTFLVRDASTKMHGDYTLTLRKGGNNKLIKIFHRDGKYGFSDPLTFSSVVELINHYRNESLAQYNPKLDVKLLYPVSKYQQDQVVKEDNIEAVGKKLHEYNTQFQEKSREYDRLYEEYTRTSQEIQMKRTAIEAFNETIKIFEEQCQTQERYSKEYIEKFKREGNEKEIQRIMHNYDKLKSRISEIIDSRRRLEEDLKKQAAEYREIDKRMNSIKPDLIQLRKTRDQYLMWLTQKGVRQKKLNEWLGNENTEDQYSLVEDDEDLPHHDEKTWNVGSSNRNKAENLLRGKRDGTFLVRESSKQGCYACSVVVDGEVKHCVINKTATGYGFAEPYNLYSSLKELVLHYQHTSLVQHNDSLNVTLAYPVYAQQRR

IC50 [1] [nM]	IC50 (mTOR kinase) [nM]	IC50 (PC3 cells) [nM]	SMILES
< 50	< 50	201 to 10000	CN(C)C(=O)c1ccc(NC(=O)Nc2ccc(-c3nc(N4CCOCC4)c4ccc(-c5cccnc5)cc4n3)cc2)cc1F [Example 260, 2-fluoro-N,N-dimethyl-4-(3-(4-(4-morpholino-7-(pyridin-3-yl)quinazolin-2-yl)phenyl)ureido)-benzamide]
50 to 200	50 to 200	100 to 500	CC(=O)Nc1ccc(NC(=O)Nc2ccc(-c3nc(N4CCOCC4)c4ccc(-c5ccc(C)o5)cc4n3)cc2)cc1 [Example 17, N-(4-(3-(4-(7-(5-methylfuran-2-yl)-4-morpholino-quinazolin-2-yl)phenyl)ureido)phenyl)acetamide]
< 50	50 to 200	< 100	CNC(=O)c1ccc(NC(=O)Nc2ccc(-c3nc(N4CCOCC4)c4ccc(-c5ccco5)cc4n3)cc2)cc1 [Example 233, 4-(3-(4-(7-(furan-2-yl)-4-morpholine-quinazolin-2-yl)phenyl)ureido)-N-methyl-benzamide]
50 to 200	< 50	< 100	CN1CCN(C(=O)c2ccc(NC(=O)Nc3ccc(-c4nc(N5CCOCC5)c5ccc(-c6cnn(C)c6)cc5n4)cc3)cc2)CC1 [Example 27, 1-[4-(4-methyl-piperazine-1-carbonyl)-phenyl]-3-{4-[7-(1-methyl-1H-pyrazol-4-yl)-4-morpholin-4-yl-quinazolin-2-yl]-phenyl}-urea]
50 to 200	< 50	201 to 10000	CC(O)c1ccc(-c2ccc3c(N4CCOCC4)nc(-c4ccc(NC(=O)Nc5ccc(C(=O)N(C)C)cc5)cc4F)nc3c2)o1 (centres unmarked) [Example 275, 4-(3-(3-fluoro-4-(7-(5-(1-hydroxyethyl)furan-2-yl)-4-morpholino-quinazolin-2-yl)phenyl)ureido)-N,N-dimethyl-benzamide]
50 to 200	50 to 200	100 to 500	CN1CCN(C(=O)c2ccc(NC(=O)Nc3ccc(-c4nc(N5CCOCC5)c5ccc(-c6ccsc6)cc5n4)cc3)cc2)CC1 [Example 37, 1-[4-(4-methyl-piperazine-1-carbonyl)-phenyl]-3-[4-(4-morpholin-4-yl-7-thiophen-3-yl-quinazolin-2-yl)-phenyl]-urea]
50 to 200	< 50	< 100	CN(C)C(=O)c1ccc(NC(=O)Nc2ccc(-c3nc(N4CCOCC4)c4ccc(-c5cncnc5)cc4n3)c(F)c2F)cc1 [Example 280, 4-(3-(2,3-difluoro-4-(4-morpholino-7-(pyrimidin-5-yl)quinazolin-2-yl)phenyl)ureido)-N,N-dimethyl-benzamide]
50 to 200	50 to 200	100 to 500	CN(C)C(=O)c1ccc(NC(=O)Nc2ccc(-c3nc(N4CCOCC4)c4ccc(-c5ccoc5)cc4n3)cc2)cc1 [Example 53, 4-{3-[4-(7-furan-3-yl-4-morpholin-4-yl-quinazolin-2-yl)-phenyl]-ureido}-N,N-dimethyl-benzamide]
< 50	< 50	< 100	CN(C)C(=O)c1ccc(NC(=O)Nc2ccc(-c3nc(N4CCOCC4)c4cc(F)c(-c5cccnc5)cc4n3)cc2)cc1 [Example 29, 4-{3-[4-(6-fluoro-4-morpholin-4-yl-7-pyridin-3-yl-quinazolin-2-yl)-phenyl]-ureido}-N,N-dimethyl-benzamide]
< 50	< 50	201 to 10000	CN(C)C(=O)c1ccc(NC(=O)Nc2ccc(-c3nc(N4CCOCC4)c4ncc(-c5cncnc5)cc4n3)c(F)c2)cc1 [Example 250, 4-(3-(3-fluoro-4-(4-morpholino-7-(pyrimidin-5-yl)pyrido[3,2-d]pyrimidin-2-yl)phenyl)ureido)-N,N-dimethyl-benzamide]
< 50	50 to 200		CN1CCN(C(=O)c2ccc(NC(=O)Nc3ccc(-c4nc(N5CCOCC5)c5ccc(-c6ccco6)cc5n4)cc3)cc2)CC1 [Example 158, 1-(4-(7-(furan-2-yl)-4-morpholino-quinazolin-2-yl)phenyl)-3-(4-(4-methylpiperazine-1-carbonyl)phenyl)urea]
< 50	201 to 10000		CN(C)C(=O)c1ccc(NC(=O)Nc2ccc(-c3nc(N4CCOCC4)c4ccc(-c5cnn(C)c5)cc4n3)cn2)c(F)c1 [Example 172, 3-fluoro-N,N-dimethyl-4-(3-(5-(7-(1-methyl-1H-pyrazol-4-yl)-4-morpholino-quinazolin-2-yl)pyridin-2-yl)ureido)-benzamide]
< 50	< 50		CC(=O)c1ccc(-c2ccc3c(N4CCOCC4)nc(-c4ccc(NC(=O)Nc5ccc(C(=O)N(C)C)c(F)c5)cc4)nc3c2)o1 [Example 13, 4-(3-(4-(7-(5-acetylfuran-2-yl)-4-morpholino-quinazolin-2-yl)phenyl)ureido)-2-fluoro-N,N-dimethyl-benzamide]
201 to 10000	50 to 200		CC(O)c1ccc(-c2ccc3c(N4CCOCC4)nc(-c4ccc(NC(=O)Nc5ccc(C(=O)N(C)C)cc5F)cc4)nc3c2)o1 (centres unmarked) [Example 227, 3-fluoro-4-(3-(4-(7-(5-(1-hydroxyethyl)furan-2-yl)-4-morpholino-quinazolin-2-yl)phenyl)ureido)-N,N-dimethyl-benzamide]
50 to 200	50 to 200		Cc1ccc(-c2ccc3c(N4CCOC(C)C4)nc(-c4ccc(NC(=O)Nc5ccc(C(=O)N(C)C)cc5)cc4)nc3c2)o1 (centres unmarked) [Example 142, N,N-dimethyl-4-(3-(4-(7-(5-methylfuran-2-yl)-4-(2-methylmorpholino)quinazolin-2-yl)phenyl)ureido)-benzamide]
50 to 200	< 50		CN(C)C(=O)c1ccc(NC(=O)Nc2ccc(-c3nc(N4CCOCC4)c4cc(F)c(-c5cnn(C)c5)cc4n3)cc2F)cc1 [Example 108, 4-(3-(2-fluoro-4-(6-fluoro-7-(1-methyl-1H-pyrazol-4-yl)-4-morpholino-quinazolin-2-yl)phenyl)ureidodimethyl-benzamide)-N,N-dimethyl-benzamide]
50 to 200	< 50		CN(C)C(=O)c1ccc(NC(=O)Nc2ccc(-c3nc(N4CCOCC4)c4cc(F)c(-c5cncnc5)cc4n3)cc2)c(F)c1 [Example 174, 3-fluoro-4-(3-(4-(6-fluoro-4-morpholino-7-(pyrimidin-5-yl)quinazolin-2-yl)phenyl)ureido)-N,N-dimethyl-benzamide]
201 to 10000	50 to 200		CN(C)C(=O)c1ccc(NC(=O)Nc2ccc(-c3nc(N4CCOCC4)c4ccc(CN5CCC(O)CC5)cc4n3)cc2)cc1 [Example 284, 4-(3-(4-(7-((4-hydroxypiperidin-1-yl)methyl)-4-morpholino-quinazolin-2-yl)phenyl)ureido)-N,N-dimethyl-benzamide]
< 50	< 50		CN(C)C(=O)c1ccc(NC(=O)Nc2ccc(-c3nc(N4CCOCC4)c4ncc(-c5cnc(N(C)C)nc5)cc4n3)cc2)cc1 [Example 230, 4-(3-(4-(7-(2-(dimethylamino)pyrimidin-5-yl)-4-morpholino-pyrido[3,2-d]pyrimidin-2-yl)phenyl)ureido)-N,N-dimethyl-benzamide]
< 50	< 50		CN(C)C(=O)c1ccc(NC(=O)Nc2ccc(-c3nc(N4CCOCC4)c4ccc(-c5cnc(O)nc5)cc4n3)cc2)cc1 [Example 150, 4-(3-(4-(7-(2-hydroxypyrimidin-5-yl)-4-morpholino-quinazolin-2-yl)phenyl)ureido)-N,N-dimethyl-benzamide]
